Results as given in BindingDB's records for doi:10.1016/j.bmcl.2005.03.049 (Abbott Laboratories, 2005).

Biological target: Protein farnesyltransferase subunit beta/geranylgeranyltransferase type-1 subunit alpha (Bos taurus, UniProt P29702+P49355)
Assay: FTase Activity Assay
Settings: pH 7.5; 37 °C
Protocol: The in vitro activity of compounds inhibiting FTase was determined by measuring the transfer of [3H]-FPP to substrate Ha-Ras-CVLS. The incorporated radioactivity was quantified by scintillation counting.

Cn1cncc1C(O)(c1ccc(Cl)cc1)c1ccc2ccn(-c3cccc4ccccc34)c2c1 (configuration not stated) [(4-chlorophenyl)(1-methyl-1H-imidazol-5-yl)[1-(naphthalen-1-yl)-1H-indol-6-yl]methanol]
IC50: 200 nM

Cn1cncc1C(O)(c1ccc(Cl)cc1)c1ccc2ccn(-c3cccc(Cl)c3)c2c1 (configuration not stated) [(4-chlorophenyl)[1-(3-chlorophenyl)-1H-indol-6-yl](1-methyl-1H-imidazol-5-yl)methanol]
IC50: 36 nM
